These results are taken from patent publication US4385057A, “Diphenylbutyl-piperazinecarboxamides in pharmaceutical compositions and methods” (priority 1978, dated 1983).

The nature of one assay: Geller conflict test. The class given is in vivo. Conditions: s.c., ** (Student's t-test). From the text: The Geller conflict test for anxiolytics clearly meets the requirements for a standard model and is most useful operant paradigm in screening for new drugs. (I. Geller and J. Seifler, Psychopharmacologia l, 482 (1960); B. Blackwell and W. E. Whitehead, In: A. Sudilovsky, S. Gershorn and B. Beer, eds. Predictability in Psychopharmacology: Preclinical and Clinical Correlations. Raven Press New York pp. 121, (1975)).

The test system of assay [1] is isolation-induced aggressive behaviour of male mice. As to conditions: background on clinically used drugs; in words; cited from earlier work.
Another assay concerns thymus. As to the kind of experiment: Swim-test (stress-induced thymolymphatic involution). The class given is in vivo, mouse (NMRI female). From the text: If an animal is in a stage of exhaustion the rise in glucocorticoids induced by the stress causes thymolymphatic involution and elicites a characteristic change in blood count. […] In the experiments NMRI female mice were used with well-documented thymic glands. In the experiments the mice were divided in four groups. In the first group the mice were allowed to stay in their home cages all the time. In the second group saline-treated mice were repeatedly forced to swim in water at a temperature of +5° C. for 1 min. once every hour, 6 times per day for four days. In the third group the mice were pre-treated once with the test compound 10 min. before the first swim-test, otherwise the mice were manipulated in the same way as in the second group. In the fourth group the mice were adrenalectomized three days before the start of the swim tests. Otherwise also this group was manipulated as the second group. All mice were killed on the 5th day of the experiment and the weight of the thymic gland registered.

For assay [2], the system named is guinea pig papillary muscle. As to the kind of experiment: Prolongation of effective refractory period in guinea pig papillary muscle. Conditions: 10^-7 M; pacing frequencies 1, 2 and 4 Hz.
For assay [3], the system named is isolation-induced aggressive behaviour of male mice. Briefly: Isolation-induced aggressive behaviour. Conditions: Mus musculus, sc; 1.0 hour after drug administration; read-out: ED50, mg/kg, sc (dose inhibiting aggressive behaviour among 50 percent of the pairs). The class given is in vivo, mouse (male NMR mice). An excerpt:
Male mice subjected to prolonged isolation develop aggressive behavior against each other when paired. […] The clinical correlation of this test indicates tranquillizing and anxiolytic activities as well as antiaggressive properties as such (R. L. Duncan et al., J. Med. Chem. 13, 1 (1970)).
This type of aggression is interesting because it is known that this kind of emotional behaviour might be located in limbic structures in the brain (P. D. Mac Lean, Psychosom. Med. 11, 338 (1949)).
Every week 24 male NMR mice, weighing 20-22 g, were isolated in Makrolon cages for three weeks with diet and water ad libitum. A piece of cardboard was placed between the cages to prevent visual contact.
To test aggressiveness the mice were paired in a neutral area, a beaker (14 cm high and diameter 14 cm). A pair is considered aggressive if both the animals show clear signs of fighting within 5 min. This fighting is characterized by biting and vocalization. As soon as fighting is seen, the mice are separated and brought to their home cage. […] Animals showing no aggression are discarded. […] The test substance is administered s.c. (0.2-0.4 ml/20 g). The mice are paired 1/2 h, 1 h, 2 h, 4 h, 6 h and 24 h after the injection for trials of 5 min. duration.
The ED50 -value (mg/kg) reported is the dose inhibiting aggressive behaviour among 50 percent of the pairs 1.0 hour after drug administration.

In the next assay the test system is gastric ulcers in rats. Briefly: Stress-induced ulcers (restraint and cold). It counts as in vivo, rat (female Sprague Dawley). As to conditions: pre-treatment dose 1.0 mg/kg, 15 min before cold and restraint. From the text: A number of methods have been described for studies of somatic expression of adverse stimulation in experimental animals. One method is based upon the development of gastric lesions in rat subjected to some form of environmental stress. The most frequently used mode of stressing the rats is by simple physical restraint. In the experiments to be described rats were immobilized in rigid plastic devices. As repeatedly shown the restraint and the exposure to cold, act synergistically to produce gastric ulcers. The method for production of stress ulcus in rats has been described earlier (R. J. Levine In: C. J. Pfeiffer ed., Peptic Ulcer, Scand. Univ. Books, Copenhagen 1971). The animals in the experiments, female Sprague Dawley rats 180-230 g, have been kept immobilized for three hours at +5° C. For 24 hours prior to restraint the animals furthermore were not allowed to ingest anything but tap water. In all experiments the rats were divided in three groups. In the first group all animals were pre-treated only with saline 15 min. before the exposure to the stressors. […] The third group consisted always of the compound to be tested in this model. The number and severity of gastric erosions in the opened stomach of controls and drug-pre-treated animals were scored. The average number of gastric ulcers in the control rats were put equal to a hundred percent. In table VI the potency of some compounds to protect against gastric ulcers in the described experiments is reported. All pre-treatments were always made 15 min. before the exposure to cold and restraint.

Assay [4] relates to exploratory activity / climbing of mice. Briefly: Climbing (inability to ascend net-ladder). It counts as in vivo, mouse (NMRI female). Conditions: Mus musculus, sc; 0.5 h after administration; read-out: ED50, mg/kg, s.c. (dose rendering 50% of the mice incapable of entering the top of the net-ladder). The procedure: When mice are placed in a new area, they explore the whole available territory. Minor and major tranquillizers inhibit the exploratory activity. The sedative effect of drugs is evaluated by the inability of mice to ascend a netladder. The process of climbing is very complex and consists of psychical and taxic (motor performance) components. For the experiments a transparent cage (36×27×23 cm) and a net-ladder (35×6 cm) standing with an inclination of 45° was used. (P. Kneip. Arch. Int. Pharmacodyn. 76, 238 (1960); F. Sandberg, Arzneimittelforsch. 4, 203 (1959)).
The test compound is administered s.c. (10 ml/kg) to 6 NMRI female mice per dose. The mice are marked with a number code from 1 to 6, in order to recognize each individual mouse. In 25 minutes, 55 minutes, 1 h 55 minutes and 3 h 55 minutes time after the administration the mice are placed in the above-mentioned cage for 10 minutes. The number of mice ascending the top of the net-ladder is noted. Other behavioural items are also noted. The ED50 (mg/kg) reported is the dose rendering 50% of the mice incapable of entering the top of the net-ladder 0.5 h after the administration.

In assay [5] the test system is mouse-killing behaviour of rats. Briefly: Spontaneous mouse-killing (muricide) by rats. It counts as in vivo, rat (male hooded Long-Evans). As to conditions: Rattus norvegicus, sc. From the text: For the purpose of detecting new psychotropic substances with antiaggressive properties, pharmacologist have used several different models. […] This form of aggressive behaviour which is considered to be of predatory nature, is physiologically and topographically different from other forms of aggression (M. O'Boyle, Psychol. Bull. 81, 261 (1974)). Mousekilling is a spontaneous behaviour in some rat strains e.g. male hooded Long-Evans rats. Male hooded Long-Evans rats placed in individual cages were used. By testing a number of rats, a colony of rats was obtained that killed a mouse whenever introduced into the rats' cage, by biting the mouse through the cervical spinal cord. Each rat was tested for mouse-killing behaviour (killing a mouse within 5 minutes) prior to each experiment, thus serving as its own positive control. For each dose level 6 positive rats were selected and the test substance was administered by subcutaneous injection. Doses were selected to form a dose-response curve and the mean effective dose (ED50, mg/kg) was calculated by means of linear regression. The rats were tested at 1, and 2 hours after being injected subcutaneously.

In assay [6] the test system is acetic acid induced writhing. Briefly: Writhing test (analgetic properties). As to conditions: Mus musculus, sc, 20 min before acetic acid i.p.; read-out: ED50, mg/kg, s.c. (dose blocking the writhing behaviour in 50% of the animals). It counts as in vivo, mouse (NMRI female). How it is done:
The writhing test is a frequently used test of analgetic properties (L. B. Witkin et al., J. Pharmacol. Exp. Ther. 133, 400 (1961)). If acetic acid (0.5%, 15 ml/kg) is injected intraperitoneally in mice (NMRI) they will without exception develop a writhing behaviour characterized by stretching their hind legs. The drugs to be tested were administered subcutaneously to 6 female mice at each dose 20 min. before the injection of the acetic acid. After 10 min. the behaviour of the mice was studied in 5 min. The ED50 value is the dose blocking the writhing behaviour in 50% of the animals during the 5 min. study period. [drawing 13]

Where two headings read alike, the source gives them in different places.

`CN1C(=O)CN=C(c2ccccc2)c2cc(Cl)ccc21` [Diazepam, reference compound]: the “Percent shocks compared to controls” value in “Geller conflict test” (dose 1.0 mg/kg) stood at 240%. Further, the “effect on isolation-induced aggressive behaviour” value in assay [1] was “active”.

Turning to `CCNC(=O)N1CCN(CCCC(c2ccc(F)cc2)c2ccc(F)cc2)CC1` [II, N'-Ethyl-4-[4,4-(di-p-fluorophenyl)butyl]-1-piperazinecarboxamide], the “protecting capacity against the induced stress” value with thymus (in words) is on record as “most protecting capacity”. In addition, in the assay with thymus (pre-treatment dose 1.0 mg/kg, once 10 min before first swim-test, saline stressed 36, unstressed 66, Wilcoxon's ranking test), the “Relative weight of thymus, ×100” value came to 50. Moreover, the “prolongation of the effective refractory period” value in assay [2] turned out to be 30 ms. Besides, the ED50 in [3] stood at 1.3 mg/kg; in assay [4] it was 0.7 mg/kg; in [5] (read-out: ED50, mg/kg, s.c., 2 hrs after injection), 1.9 mg/kg; in [5] (1 hr after injection, read-out: ED50, mg/kg, s.c., 1 hr), 0.4 mg/kg; in [6], 0.7 mg/kg. For the same compound, the “Percent shocks compared to controls” value in “Geller conflict test” (dose 0.5 mg/kg) is reported as 250%. Further, in the assay on gastric ulcers in rats, the “Inhibition, % (gastric ulcers)” value stood at 43%.
